# Test results from article PMC7150648 (ACS infectious diseases, 2020).
# “Also recorded” adds a separate entry of the source. Where two headings read alike, the source gives them in different places.
# Tests used:
# QscR = QscR (Pseudomonas aeruginosa, UniProt G3XD77); format: cell-based; conditions: E. coli reporter; result in words
# LasR Y56F mutant = LasR Y56F mutant (Pseudomonas aeruginosa, UniProt P25084, Y56F); test: E. coli LasR mutant reporter, Y56F; format: cell-based; conditions: result in words
# LasR [1] = target: T1, LasR (Pseudomonas aeruginosa, UniProt P25084); test: LasR agonism, P. aeruginosa PAO-JP2 GFP reporter, compound alone; format: cell-based; conditions: result in words
# LasR [2] = target: T1, LasR; test: E. coli LasR β-galactosidase reporter, wild-type LasR; format: cell-based; conditions: result in words
# RhlR = RhlR (Pseudomonas aeruginosa, UniProt P54292); test: E. coli RhlR β-galactosidase reporter; format: cell-based; conditions: result in words
# MexAB-OprM efflux pump = conditions: P. aeruginosa; ref [16]; cited from earlier work
# LasR [3] = target: T1, LasR; conditions: 50 μM compound; 16 h protein production
# LasR S129A mutant = LasR S129A mutant (Pseudomonas aeruginosa, UniProt P25084, S129A); test: E. coli LasR mutant reporter, S129A; format: cell-based; conditions: result in words
# LasR W60F mutant = LasR W60F mutant (Pseudomonas aeruginosa, UniProt P25084, W60F); test: E. coli LasR mutant reporter, W60F; format: cell-based; conditions: 100 μM vs OdDHL at its EC50; result in words
# LasR [4] = target: T1, LasR; test: LasR antagonism, P. aeruginosa PAO-JP2 GFP reporter, in competition with OdDHL; format: cell-based
# LasR [5] = target: T1, LasR; conditions: result in words; ref Wu et al., FASEB J. 2016; cited from earlier work
# LasR [6] = target: T1, LasR; conditions: P. aeruginosa LasR reporter; ref [30]; cited from earlier work
smiles,measurement,setting,value
"CCCCCCCCCNC(=O)CC(=O)c1ccccc1 [V-06–018, N-nonyl-3-oxo-3-phenylpropanamide]",activity in QscR (antagonist or agonist),QscR,only a very weak antagonist; also recorded: only a weak QscR antagonist
same,LasR Y56F antagonism compared with wild-type LasR,LasR Y56F mutant; 100 μM vs OdDHL at its EC50,significantly lesser extent than wild-type LasR
same,LasR Y56F agonism compared with wild-type LasR,LasR Y56F mutant; 100 μM,significantly greater extent than wild-type LasR
same,LasR activation in dose-response agonism curves,LasR [1],did not activate LasR
same,"activity in LasR (antagonist in competition, agonist alone)",LasR [2],only an antagonist of LasR; also recorded: does not agonize wild-type LasR
same,activity in RhlR (antagonist or agonist),RhlR,no activity (as either an antagonist or agonist)
same,active efflux by MexAB-OprM,MexAB-OprM efflux pump,not actively effluxed
same,soluble (S) LasR band intensity relative to whole cell (WC) band,LasR [3],~ 7%
same,LasR S129A antagonism compared with wild-type LasR,LasR S129A mutant; 100 μM vs OdDHL at its EC50,significantly lesser extent than wild-type LasR
same,LasR S129A agonism compared with wild-type LasR,LasR S129A mutant; 100 μM,significantly more than wild-type LasR
same,LasR W60F antagonism compared with wild-type LasR,LasR W60F mutant,significantly lesser extent than wild-type LasR
same,IC50,LasR [4],3.9 µM
same,"LasR antagonism, primary screen","LasR [4]; PAO-JP2, compound 10 μM vs 150 nM OdDHL",~ 90%
same,IC50,"LasR [4]; PAO-JP2, vs 150 nM OdDHL (approximate EC50)",2.3 µM
same,Maximum Inhibition,"LasR [4]; PAO-JP2, vs 150 nM OdDHL, best-fit bottom of dose-response curve",89%
CCCCC[C@H](O)/C=C/C=C\C=C\C=C\[C@@H](O)[C@@H](O)CCCC(=O)O [Lipoxin A],IC50,LasR [5],nanomolar IC50
O=C(Cc1ccc(Br)cc1)N[C@H]1CCOC1=O [4-bromo PHL],IC50,LasR [6],116 µM
